Data from US4605744A, “Imidazole derivatives” (Hoffmann-La Roche Inc., priority 1985, dated 1986).
Counter-ions that a name gives are not always drawn. Like-named read-outs stand apart in the source and are kept apart here.

Experiments:
E. coli 257 [1] = assay: In vitro antibacterial activity (MIC, Mueller-Hinton broth); format: cell-based; details: Escherichia coli, 257, E. coli 257; read-out: MIC
Method: Drug dilutions are prepared in Mueller-Hinton broth ranging from 128 to 0.008 μg/ml. The diluted agents are dispensed in 100 μl amounts into the wells of a 96-well tray and used immediately or frozen at -10° to -70° C. until needed. Using an automated inoculator, 1.5 μl of a 10^-2 dilution of an overnight culture is added to each well of the tray. The tops of the trays are then sealed using transparent tape and incubated overnight at 37° C. The trays are examined with the aid of a viewer. The lowest concentration at which no growth is observed is considered to be the minimum inhibitory concentration (MIC).

E. aerogenes 83 = assay: In vitro antibacterial activity (MIC); format: cell-based; details: Klebsiella aerogenes, 83, E. aerogenes 83; read-out: MIC
Outline: (§1)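 Broth microdilution in Mueller-Hinton broth, drug range 128 to 0.008 μg/ml. Each well received 1.5 μl of a 10^-2 dilution of an overnight culture; sealed trays were incubated overnight at 37° C. MIC = lowest concentration with no visible growth.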

E. aerogenes 8 = assay: In vitro antibacterial activity (MIC); format: cell-based; details: Klebsiella aerogenes; E. aerogenes 8; read-out: MIC
Outline: as §1

E. cloacae 24 = assay: In vitro antibacterial activity (MIC); format: cell-based; details: Enterobacter cloacae, 24, E. cloacae 24; read-out: MIC
Outline: as §1

E. coli 387-1 = assay: In vitro antibacterial activity (MIC); format: cell-based; details: Escherichia coli, 3871, E. coli 387-1; read-out: MIC
Outline: as §1

E. coli 4 = assay: In vitro antibacterial activity (MIC); format: cell-based; details: Escherichia coli, 4, E. coli 4; read-out: MIC
Outline: as §1

E. coli 503-455 = assay: In vitro antibacterial activity (MIC); format: cell-based; details: Escherichia coli, 503455, E. coli 503-455; read-out: MIC
Outline: as §1

K. pneumoniae 4964 = assay: In vitro antibacterial activity (MIC); format: cell-based; details: Klebsiella pneumoniae, 4964, K. pneumoniae 4964; read-out: MIC
Outline: as §1

K. pneumoniae A = assay: In vitro antibacterial activity (MIC); format: cell-based; details: Klebsiella pneumoniae, K. pneumoniae A; read-out: MIC
Outline: as §1

P. aeruginosa 503-820 = assay: In vitro antibacterial activity (MIC); format: cell-based; details: Pseudomonas aeruginosa, 503820; P. aeruginosa 503-820; read-out: MIC
Outline: as §1

P. aeruginosa 8710 [2] = assay: In vitro antibacterial activity (MIC); format: cell-based; details: Pseudomonas aeruginosa; P. aeruginosa 8710; read-out: MIC
Outline: as §1

P. aeruginosa 8780 = assay: In vitro antibacterial activity (MIC); format: cell-based; details: Pseudomonas aeruginosa; P. aeruginosa 8780; read-out: MIC
Outline: as §1

P. mirabilis 190 = assay: In vitro antibacterial activity (MIC); format: cell-based; details: Proteus mirabilis, 190, P. mirabilis 190; read-out: MIC
Outline: as §1

P. mirabilis 503-1136 = assay: In vitro antibacterial activity (MIC); format: cell-based; details: Proteus mirabilis, 5031136, P. mirabilis 503-1136; read-out: MIC
Outline: as §1

P. mirabilis 90 = assay: In vitro antibacterial activity (MIC); format: cell-based; details: Proteus mirabilis, 90, P. mirabilis 90; read-out: MIC
Outline: as §1

P. vulgaris 101 = assay: In vitro antibacterial activity (MIC); format: cell-based; details: Proteus vulgaris, 101, P. vulgaris 101; read-out: MIC
Outline: as §1

S. aureus 1059B = assay: In vitro antibacterial activity (MIC); format: cell-based; details: Staphylococcus aureus, read-out: MIC
Outline: as §1

S. marcescens S1 = assay: In vitro antibacterial activity (MIC); format: cell-based; details: Serratia marcescens, S1, S. marcescens S1; read-out: MIC
Outline: as §1

S. marcescens S4 = assay: In vitro antibacterial activity (MIC); format: cell-based; details: Serratia marcescens, S4, S. marcescens S4; read-out: MIC
Outline: as §1

S. marcescens S714 = assay: In vitro antibacterial activity (MIC); format: cell-based; details: Serratia marcescens, S714, S. marcescens S714; read-out: MIC
Outline: as §1

S. pyogenes 4 [3] = assay: In vitro antibacterial activity (MIC); format: cell-based; details: Streptococcus pyogenes, 4, S. pyogenes 4; read-out: MIC
Outline: as §1

S. schottmuelleri = assay: In vitro antibacterial activity (MIC); format: cell-based; details: read-out: MIC
Outline: as §1

E. coli 257 [4] = assay: In vivo antibacterial activity (PD50); details: Escherichia coli, 257, sc, challenge >10^4 LD50s, 1 treatment, Table 10
S. aureus Smith = assay: In vivo antibacterial activity (PD50); details: Staphylococcus aureus, sc, 2 treatments, Table 10
S. pyogenes 4 [5] = assay: In vivo antibacterial activity (PD50); details: Streptococcus pyogenes, 4, sc, sc; challenge 100 LD50s; 2 treatments; Table 10; read-out: PD50
P. aeruginosa 6720 = assay: In vivo antibacterial activity (PD50); details: Pseudomonas aeruginosa, 6720, sc, challenge 3511 LD50s, 2 treatments, Table 10
P. aeruginosa 8710 [6] = assay: In vivo antibacterial activity (PD50); details: Pseudomonas aeruginosa, 8710, sc, 2 treatments, Table 10, read-out: PD50
P. aeruginosa 6799 = assay: In vivo antibacterial activity (PD50); details: Pseudomonas aeruginosa, 6799, sc, sc; challenge 48 LD50s; 2 treatments; Table 10; read-out: PD50
K. pneumoniae HE7 = assay: In vivo antibacterial activity (PD50); details: Klebsiella pneumoniae, HE7, sc, challenge 750 LD50s, 2 treatments, Table 10
K. pneumoniae 503-990A = assay: In vivo activity alone and in combination (PD50, FIC); details: Klebsiella pneumoniae, 503990A, sc, alone
Method: (§2) In Tables 9-14, the results of the in vivo activity against certain microorganisms of compounds I, M and N as given. […] The results in these Tables and the PD50 's were determined by the procedure set forth on page 160 in Beskid et al., Antimicrobial Agents and Chemotherapy, Vol. 20, No. 2 pp. 159-167 (Aug. 1981) for "in vivo studies".
(§3) In the Tables, the fractional inhibitory concentration index (FIC) for synergistic combination of a compound of this invention (X) with known antibiotic compound (Y) is determined by the following formula:
(§4) FIC=(PD50 (X combination)/PD50 (X alone)+(PD50 (Y
(§5) combination)/PD50 (Y alone)
(§6) An FIC of ≤0.60 is indicative of synergy. The synergy rating in the Tables is as follows:
(§7) In the combination, the parts are parts by weight, i.e. 10 to 1 is 10 parts by weight to 1 part by weight.

K. pneumoniae R2296 = assay: as above; details: Klebsiella pneumoniae, sc, alone
Method: as §2, §3, §4, §5, §6, §7

CC1(C)S[C@@H]2[C@H](N=CN3CCC(CC4=NCCN4)CC3)C(=O)N2[C@H]1C(=O)O [M, [2S-(2alpha,5alpha,6beta)]-6-[[[4-[(4,5-dihydro-1H-imidazol-2-yl)methyl]-1-piperidinyl]methylene]amino]-3,3-dimethyl-7-oxo-4-thia-1-azabicyclo[3.2.0]heptane-2-carboxylic acid hydrochloride]
MIC (E. coli 257 [1]): 0.125 µg/mL
MIC (E. aerogenes 83): 2 µg/mL
MIC (E. aerogenes 8): 32 µg/mL
MIC (E. cloacae 24): 0.5 µg/mL
MIC (E. coli 387-1): 0.062 µg/mL
MIC (E. coli 4): 0.062 µg/mL
MIC (E. coli 503-455): 2 µg/mL
MIC (K. pneumoniae 4964): 2 µg/mL
MIC (K. pneumoniae A): 0.062 µg/mL
MIC (P. aeruginosa 503-820): 64 µg/mL
MIC (P. aeruginosa 8710 [2]): 64 µg/mL
MIC (P. aeruginosa 8780): 128 µg/mL
MIC (P. mirabilis 190): 0.5 µg/mL
MIC (P. mirabilis 503-1136): 8 µg/mL
MIC (P. mirabilis 90): 0.5 µg/mL
MIC (P. vulgaris 101): 16 µg/mL
MIC (S. aureus 1059B): 32 µg/mL
MIC (S. marcescens S1): 0.25 µg/mL
MIC (S. marcescens S4): 1 µg/mL
MIC (S. marcescens S714): 0.5 µg/mL
MIC (S. pyogenes 4 [3]): 1 µg/mL
MIC (S. schottmuelleri): 0.062 µg/mL
ED50 (E. coli 257 [4]): 1.5 mg/kg
ED50 (S. aureus Smith; challenge 48 LD50s): < 5 mg/kg
ED50 (S. aureus Smith; challenge 100 LD50s): 6.7 mg/kg
ED50 (S. pyogenes 4 [5]): < 2 mg/kg
ED50 (P. aeruginosa 6720): 29 mg/kg
ED50 (P. aeruginosa 8710 [6]; challenge 10 LD50s): 54 mg/kg
ED50 (P. aeruginosa 8710 [6]; challenge 562 LD50s): 59 mg/kg
ED50 (P. aeruginosa 6799): > 250 mg/kg
ED50 (K. pneumoniae HE7): 71 mg/kg
ED50 (K. pneumoniae 503-990A): 9.4 mg/kg
ED50 (K. pneumoniae R2296): > 250 mg/kg
